Test results taken from patent US20110045101A1, “FUNGICIDAL SUBSTITUTED AZOLES” (E.I. Du Pont De Nemours and Company, priority 2009, published 2011).
Marks after values point to notes of the source that are not given here.

Legend:
Type in all cases: in vivo
Rhizoctonia solani = experiment: Test B: turf brown patch on bentgrass seedlings, sprayed the day before inoculation, visual disease rating; conditions: 200 ppm, 100 = 100% disease control
From the text: General protocol for preparing test suspensions for Tests A-J: The test compounds were first dissolved in acetone in an amount equal to 3% of the final volume and then suspended at the desired concentration (in ppm) in acetone and purified water (50/50 mix) containing 250 ppm of the surfactant Trem® 014 (polyhydric alcohol esters). The resulting test suspensions were then used in tests A-J. Spraying a 200 ppm test suspension to the point of run-off on the test plants was the equivalent of a rate of 500 g/ha. […] The test suspension was sprayed to the point of run-off on bentgrass (Agrostis sp.) seedlings. […] A dash (-) indicates no test results. All results are for 200 ppm except where followed by “*”, which indicates 40 ppm.

Botrytis cinerea = experiment: Test C: tomato Botrytis on tomato seedlings, sprayed the day before inoculation, visual disease rating; conditions: 100 = 100% disease control
Method in brief: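 Each compound is first taken up in acetone at 3% of the final volume and then brought to the desired ppm in a 50:50 acetone–water mix with 250 ppm surfactant (polyhydric alcohol esters). Tomato seedlings receive the suspension to run-off, normally at 200 ppm, occasionally 40 ppm.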

Alternaria solani = experiment: Test D: tomato early blight, sprayed the day before inoculation, visual disease rating; conditions: 100 = 100% disease control
Method in brief: (§1)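 Test rate was 200 ppm, sprayed to run-off and equal to 500 g/ha, or 40 ppm where marked. The compound was first taken up in acetone at 3% of final volume and suspended in acetone/purified water (50/50) containing 250 ppm Trem® 014.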

Phytophthora infestans = conditions: 200 ppm; 100 = 100% disease control, 0 = no control relative to controls
Septoria nodorum = experiment: Test F: wheat glume blotch on wheat seedlings, sprayed the day before inoculation, visual disease rating; conditions: 100 = 100% disease control
Method in brief: as §1

Septoria tritici = experiment: Test G: wheat leaf blotch on wheat seedlings, sprayed the day before inoculation, visual disease rating; conditions: 100 = 100% disease control
Method in brief: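 Visual disease ratings taken 19 days after transfer to a 20° C growth chamber, following 48 h in saturated atmosphere at 24° C. Seedlings had been sprayed to run-off one day before spore inoculation. Dose 200 ppm, or 40 ppm where starred.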

[1] = system: Puccinia recondita f. sp. tritici; experiment: Test I: wheat leaf rust on wheat seedlings, sprayed the day before inoculation, visual disease rating; conditions: 100 = 100% disease control
Method in brief: as §1

[2] = system: Erysiphe graminis f. sp. tritici; experiment: Test J: wheat powdery mildew on wheat seedlings, sprayed the day before inoculation, visual disease rating; conditions: 100 = 100% disease control
Method in brief: as §1

[3] = system: Puccinia recondita f. sp. tritici; experiment: Test H: wheat leaf rust, test suspension sprayed after inoculation of wheat seedlings, visual disease rating; conditions: 100 = 100% disease control
Method in brief: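 Wheat seedlings inoculated with P. recondita spores, held 24 h saturated at 20 °C, then 2 days in growth chamber at 20 °C; compound suspension (acetone/water with Trem 014) sprayed to run-off afterwards. Rated visually; 200 ppm (≈500 g/ha) unless marked *, which denotes 40 ppm.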

[4] = 0 = no control relative to controls
[5] = 200 ppm, 0 = no control relative to controls
[6] = 40 ppm (marked *), 0 = no control

Row | Compound | Test C disease control rating (Botrytis cinerea; [5]) [%] | Test D disease control rating (Alternaria solani; [5]) [%] | Test F disease control rating (Septoria nodorum; [5]) [%] | Test G disease control rating (Septoria tritici; [5]) [%] | Test I disease control rating [1, 5] [%] | Test J disease control rating [2, 5] [%] | Test H disease control rating [3, 5] [%] | further results
1 | COc1cc(F)c(-c2c(C)nn(C)c2-c2ccc(Cl)c(F)c2)c(F)c1 [compound 115] | 99 | 99 | 98 | 99 | 98 | 100 | – | Test B disease control rating (Rhizoctonia solani; [4]): 99%; Test E disease control rating (Phytophthora infestans): 0%
2 | Cc1ccc(-n2cnc(Cl)c2-c2c(F)cccc2Cl)cc1 [compound 181] | – | – | – | – | – | – | – | Test B disease control rating (Rhizoctonia solani; 0 = no control): 24%; Test C disease control rating (Botrytis cinerea; 200 ppm, 0 = no control): 99%; Test D disease control rating (Alternaria solani; 200 ppm, 0 = no control): 0%; Test F disease control rating (Septoria nodorum; 200 ppm, 0 = no control): 0%; Test G disease control rating (Septoria tritici; 200 ppm, 0 = no control): 94%; Test I disease control rating ([1]; 200 ppm, 0 = no control): 98%; Test J disease control rating ([2]; 200 ppm, 0 = no control): 99%
3 | Cc1nn(C)c(-c2ccc(Cl)c(F)c2)c1-c1c(F)cc(F)cc1F [compound 104] | 92 | 98 | 0 | 32 | 0 | 95 | – | Test B disease control rating (Rhizoctonia solani; [4]): 0%; Test E disease control rating (Phytophthora infestans): 0%
4 | COc1cc(F)c(-c2c(C)nn(C)c2-c2ccc(Cl)c(OC)c2)c(F)c1 [compound 111] | 99 | 99 | 100 | 100 | 89 | 99 | – | Test B disease control rating (Rhizoctonia solani; [4]): 81%; Test E disease control rating (Phytophthora infestans): 0%
5 | Cc1ncn(-c2ccc(Cl)c(F)c2)c1-c1scnc1Cl [compound 376] | 90 | 0 | 0 | 78 | 54 | 67 | 0 | –
6 | Cc1nc(Cl)c(-c2c(F)cc(F)cc2F)n1-c1cccc(OC(F)F)c1 [compound 609] | 99 | 100 | 100 | 99 | 100 | 100 | 100 | –
7 | COc1cc(F)c(-n2nnc(Br)c2-c2ccc(Cl)cc2)c(F)c1 [compound 474] | 99 | 57 | 0 | 90 | 36 | 95 | 0 | –
8 | COc1ccc(F)c(-c2c(Cl)nc(Br)n2Cc2ccc(Cl)cc2)c1F [compound 289] | – | – | – | – | – | – | – | Test C disease control rating (Botrytis cinerea; 200 ppm, 0 = no control): 100%; Test D disease control rating (Alternaria solani; 200 ppm, 0 = no control): 96%; Test F disease control rating (Septoria nodorum; 200 ppm, 0 = no control): 0%; Test G disease control rating (Septoria tritici; 200 ppm, 0 = no control): 94%; Test H disease control rating ([3]; 200 ppm, 0 = no control): 11%; Test I disease control rating ([1]; 200 ppm, 0 = no control): 94%; Test J disease control rating ([2]; 200 ppm, 0 = no control): 97%
9 | COc1ccc(F)c(-c2c(Cl)ncn2Cc2ccc(Cl)cc2)c1F [compound 270] | – | – | – | – | – | – | – | Test C disease control rating (Botrytis cinerea; 200 ppm, 0 = no control): 100%; Test D disease control rating (Alternaria solani; 200 ppm, 0 = no control): 100%; Test F disease control rating (Septoria nodorum; 200 ppm, 0 = no control): 98%; Test G disease control rating (Septoria tritici; 200 ppm, 0 = no control): 86%; Test H disease control rating ([3]; 200 ppm, 0 = no control): 0%; Test I disease control rating ([1]; 200 ppm, 0 = no control): 99%; Test J disease control rating ([2]; 200 ppm, 0 = no control): 96%
10 | CN(C)c1ccc(-n2cnc(N(C)C)c2-c2c(F)cccc2F)cc1 [compound 634] | – | – | – | – | – | – | – | Test C disease control rating (Botrytis cinerea; 40 ppm (marked *)): 0* %; Test D disease control rating (Alternaria solani; 40 ppm (marked *)): 0* %; Test F disease control rating (Septoria nodorum; 40 ppm (marked *)): 0* %; Test G disease control rating (Septoria tritici; 40 ppm (marked *)): 0* %; Test H disease control rating ([3]; 40 ppm (marked *)): 0* %; Test I disease control rating ([1]; 40 ppm (marked *)): 0* %; Test J disease control rating ([2]; 40 ppm (marked *)): 0* %
11 | COc1cc(F)c(-c2c(Cl)ncn2Cc2ccc(Cl)nc2)c(F)c1 [compound 669] | 100 | 100 | 99 | 99 | 98 | 0 | 73 | –
12 | COc1cc(F)c(-c2c(Cl)nc(CO)n2-c2ccc(F)cc2)c(F)c1 [Compound 298, 4-chloro-5-(2,6-difluoro-4-methoxyphenyl)-1-(4-fluorophenyl)-1H-imidazole-2-methanol] | – | – | – | – | – | – | – | pest or weed control at 200 ppm (Botrytis cinerea; Botrytis cinerea, 120 h, 200 ppm, 0 = no control relative to controls): 100%; pest or weed control at 200 ppm (Alternaria solani; Alternaria solani, 168 h, 200 ppm, 0 = no control relative to controls): 100%; pest or weed control at 200 ppm (Septoria nodorum; Parastagonospora nodorum, 264 h, 200 ppm, 0 = no control relative to controls): 0%; pest or weed control at 200 ppm (Septoria tritici; Zymoseptoria tritici, 504 h, 200 ppm, 0 = no control relative to controls): 96%; pest or weed control at 200 ppm ([3]; Puccinia recondita, 96 h, 200 ppm, 0 = no control relative to controls): 0%; pest or weed control at 200 ppm ([1]; Puccinia recondita, 168 h, 200 ppm, 0 = no control relative to controls): 98%; pest or weed control at 200 ppm ([2]; Blumeria graminis, 168 h, 200 ppm, 0 = no control relative to controls): 0%
13 | COc1ccc(F)c(-c2c(C)nc(Cl)n2-c2ccc(Cl)nc2)c1F [compound 733] | 100 | 100 | 100 | 100 | 100 | 100 | 41 | –
14 | COc1cc(F)c(-c2c(Cl)nc(Cl)n2-c2cccnc2Cl)c(F)c1 [compound 513] | 99 | 100 | 100 | 100 | 100 | 100 | 100 | –
15 | COc1cc(F)c(-c2c(Cl)nc(C)n2-c2cccc(Cl)c2)c(F)c1 [compound 500] | 98 | 100 | 100 | 94 | 100 | 100 | 98 | –
16 | Fc1cccc(F)c1-c1c(Br)nc(Br)n1-c1cccnc1Cl [compound 618] | 98 | 85 | 0 | 98 | 99 | 97 | 99 | –
17 | Fc1cc(-n2c(Cl)nc(Cl)c2-c2cccc(Br)n2)ccc1Cl [compound 433] | 50 | 0 | 0 | 92 | 0 | 0 | 0 | –
18 | COc1ccc(F)c(-c2c(Cl)nc(C)n2-c2ccc(F)cc2)c1F [compound 334] | – | – | – | – | – | – | – | Test C disease control rating (Botrytis cinerea; [6]): 100* %; Test D disease control rating (Alternaria solani; [6]): 100* %; Test F disease control rating (Septoria nodorum; [6]): 90* %; Test G disease control rating (Septoria tritici; [6]): 93* %; Test H disease control rating [3, 6]: 0* %; Test I disease control rating [1, 6]: 100* %; Test J disease control rating [2, 6]: 100* %
19 | COc1cc(F)c(-c2c(Cl)nc(Br)n2-c2ccc(OC(F)(F)F)cc2)c(F)c1 [compound 548] | 98 | 100 | 94 | 96 | 99 | 100 | 0 | –
20 | COc1cc(F)c(-n2c(Cl)nc(C)c2-c2ccc(C)cc2)c(F)c1 [compound 564] | – | – | – | – | – | – | – | Test C disease control rating (Botrytis cinerea; 40 ppm (marked *)): 99* %; Test D disease control rating (Alternaria solani; 40 ppm (marked *)): 100* %; Test F disease control rating (Septoria nodorum; 40 ppm (marked *)): 64* %; Test G disease control rating (Septoria tritici; 40 ppm (marked *)): 99* %; Test H disease control rating ([3]; 40 ppm (marked *)): 66* %; Test I disease control rating ([1]; 40 ppm (marked *)): 100* %; Test J disease control rating ([2]; 40 ppm (marked *)): 100* %
